Experimental data taken from ChEMBL document CHEMBL5252532, “Oxindole: A chemical prism carrying plethora of therapeutic benefits” (Eur J Med Chem, 2016).
In brackets after ≈: the same amount, converted by molar mass.

Experiments:
GAMG = assay: Anticancer activity against human GAMG cells assessed as cell growth inhibition; format: functional, cell-based
SK-N-BE(2) = assay: Anticancer activity against human SKNBE2 cells assessed as cell growth inhibition; format: functional, cell-based
[1] = target: Cyclin-dependent kinase 1 (Homo sapiens, UniProt P06493); assay: Inhibition of human CDK1 using Biotinaminohexyl-Ala-Arg-Arg-Pro-Met-Ser-Pro-Lys-LysLys-Ala-CONH2 peptide as substrate incubated for 20 to 30 mins by scintillation counter analysis
[2] = target: Cyclin-dependent kinase 2 (Homo sapiens, UniProt P24941); assay: Inhibition of human CDK2 […]-Pro-Met-Ser-Pro-Lys-LysLys-Ala-CONH2 peptide as substrate incubated for 30 to 60 mins by scintillation counter analysis
Staphylococcus aureus = assay: Antibacterial activity against Staphylococcus aureus assessed as bacterial growth inhibition; format: functional
Escherichia coli = assay: Antibacterial activity against Escherichia coli assessed as bacterial growth inhibition; format: functional
[3] = target: Aldo-keto reductase family 1 member B1 (Homo sapiens, UniProt P15121); assay: Inhibition of AR (unknown origin) assessed as glycation activity
T-24 = assay: Anticancer activity against human T24 cells assessed as cell growth inhibition incubated for 24 hrs by MTT assay; format: functional, cell-based; details: T-24, 24 h
MGC-803 = assay: Anticancer activity against human MGC-803 cells assessed as cell growth inhibition incubated for 24 hrs by MTT assay; format: functional, cell-based; details: MGC-803, 24 h
Homo sapiens = species on record: Homo sapiens; assay: Inhibition of ERK (unknown origin) at 100 uM by western blot assay relative to control
[4] = test system: Mycobacterium tuberculosis; assay: Antitubercular activity against Mycobacterium tuberculosis H37Rv strain assessed as bacterial growth inhibition; format: functional
Streptococcus pyogenes = assay: Antibacterial activity against Streptococcus pyogenes assessed as bacterial growth inhibition; format: functional
Pseudomonas aeruginosa = assay: Antibacterial activity against Pseudomonas aeruginosa assessed as bacterial growth inhibition; format: functional
MCF7 = assay: Growth inhibition of human MCF7 cells; format: functional
RKO = assay: Anticancer activity against human RKO cells assessed as cell growth inhibition by MTT assay; format: functional, cell-based
MDA-MB-435 = assay: Anticancer activity against human MDA-MB-435 cells assessed as cell growth inhibition by MTT assay; format: functional, cell-based
[5] = target: Vascular endothelial growth factor receptor 1 (Homo sapiens, UniProt P17948); assay: Inhibition of VEGFR1 (unknown origin) in presence of ATP
[6] = target: High affinity nerve growth factor receptor (Homo sapiens, UniProt P04629); assay: Inhibition of TrkA (unknown origin)
A549 = assay: Anticancer activity against human A549 cells assessed as cell growth inhibition; format: functional, cell-based

Cyclin-dependent kinase 1, sequence (P06493 whole entry): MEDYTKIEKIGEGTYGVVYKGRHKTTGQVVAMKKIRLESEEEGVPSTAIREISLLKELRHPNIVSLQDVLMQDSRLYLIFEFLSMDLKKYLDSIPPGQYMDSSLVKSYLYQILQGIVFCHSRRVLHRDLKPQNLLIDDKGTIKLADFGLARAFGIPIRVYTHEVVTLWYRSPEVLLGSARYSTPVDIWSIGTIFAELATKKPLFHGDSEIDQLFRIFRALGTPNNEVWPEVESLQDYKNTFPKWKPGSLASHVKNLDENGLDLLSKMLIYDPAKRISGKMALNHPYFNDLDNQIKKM
High affinity nerve growth factor receptor, sequence (P04629 whole entry): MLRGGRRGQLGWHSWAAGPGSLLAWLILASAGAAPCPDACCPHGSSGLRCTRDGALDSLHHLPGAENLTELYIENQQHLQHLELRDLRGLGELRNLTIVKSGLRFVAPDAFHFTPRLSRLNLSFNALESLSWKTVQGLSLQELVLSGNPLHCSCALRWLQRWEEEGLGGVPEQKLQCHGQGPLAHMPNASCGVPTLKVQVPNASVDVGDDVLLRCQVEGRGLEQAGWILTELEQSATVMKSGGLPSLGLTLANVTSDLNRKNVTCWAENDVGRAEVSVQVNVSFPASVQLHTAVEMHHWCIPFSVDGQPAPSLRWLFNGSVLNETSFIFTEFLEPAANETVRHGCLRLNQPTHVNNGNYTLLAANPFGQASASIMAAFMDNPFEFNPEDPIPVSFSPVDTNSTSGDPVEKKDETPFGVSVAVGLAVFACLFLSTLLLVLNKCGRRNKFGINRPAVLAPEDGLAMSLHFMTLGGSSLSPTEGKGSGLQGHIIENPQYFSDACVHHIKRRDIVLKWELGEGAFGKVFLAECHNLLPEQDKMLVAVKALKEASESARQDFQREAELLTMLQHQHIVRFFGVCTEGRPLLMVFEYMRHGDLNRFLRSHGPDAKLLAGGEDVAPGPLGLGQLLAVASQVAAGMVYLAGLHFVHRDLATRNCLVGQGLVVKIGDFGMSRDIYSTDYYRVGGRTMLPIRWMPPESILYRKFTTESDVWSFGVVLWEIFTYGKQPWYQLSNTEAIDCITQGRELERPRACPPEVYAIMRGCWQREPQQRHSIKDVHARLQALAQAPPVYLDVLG
Vascular endothelial growth factor receptor 1, sequence (P17948 whole entry): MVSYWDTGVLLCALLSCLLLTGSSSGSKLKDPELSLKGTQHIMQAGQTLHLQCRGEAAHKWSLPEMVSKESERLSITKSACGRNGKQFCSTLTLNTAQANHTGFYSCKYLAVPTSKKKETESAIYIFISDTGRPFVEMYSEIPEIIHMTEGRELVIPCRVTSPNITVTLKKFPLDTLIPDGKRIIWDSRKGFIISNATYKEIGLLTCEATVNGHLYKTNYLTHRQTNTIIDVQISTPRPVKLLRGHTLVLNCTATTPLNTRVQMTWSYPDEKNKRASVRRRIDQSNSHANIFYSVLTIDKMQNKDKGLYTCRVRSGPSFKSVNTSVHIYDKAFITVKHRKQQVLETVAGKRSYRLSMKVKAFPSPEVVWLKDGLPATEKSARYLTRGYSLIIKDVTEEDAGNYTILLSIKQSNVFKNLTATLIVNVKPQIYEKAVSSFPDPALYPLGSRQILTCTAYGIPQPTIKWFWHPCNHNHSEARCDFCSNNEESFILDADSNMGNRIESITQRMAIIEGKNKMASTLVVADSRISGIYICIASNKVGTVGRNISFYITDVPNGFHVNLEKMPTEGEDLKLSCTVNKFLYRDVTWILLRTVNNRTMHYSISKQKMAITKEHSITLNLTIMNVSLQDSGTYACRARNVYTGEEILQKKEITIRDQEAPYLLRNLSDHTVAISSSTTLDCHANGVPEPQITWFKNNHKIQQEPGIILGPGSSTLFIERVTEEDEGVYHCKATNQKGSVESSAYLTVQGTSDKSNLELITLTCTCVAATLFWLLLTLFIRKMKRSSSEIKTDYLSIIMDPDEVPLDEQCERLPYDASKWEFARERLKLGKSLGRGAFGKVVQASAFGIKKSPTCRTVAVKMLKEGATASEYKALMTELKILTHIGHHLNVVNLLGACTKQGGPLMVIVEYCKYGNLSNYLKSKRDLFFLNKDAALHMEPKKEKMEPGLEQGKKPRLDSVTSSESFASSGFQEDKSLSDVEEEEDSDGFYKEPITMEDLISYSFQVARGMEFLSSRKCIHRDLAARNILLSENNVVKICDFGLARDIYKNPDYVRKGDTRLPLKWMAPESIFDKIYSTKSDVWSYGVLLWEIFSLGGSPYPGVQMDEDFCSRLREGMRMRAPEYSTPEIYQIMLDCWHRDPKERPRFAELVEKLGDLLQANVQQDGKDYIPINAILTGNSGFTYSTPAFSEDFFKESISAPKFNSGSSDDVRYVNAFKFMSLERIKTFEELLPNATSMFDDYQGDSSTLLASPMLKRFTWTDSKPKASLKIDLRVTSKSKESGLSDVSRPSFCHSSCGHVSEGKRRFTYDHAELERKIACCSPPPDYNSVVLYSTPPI

Question: Which results are given for COC(=O)C1=CO[C@@H](C)[C@H]2CN3CC[C@]4(C(=O)Nc5ccccc54)[C@@H]3C[C@H]12?
Answer: IC50 (GAMG): 12.3 µM; IC50 (SK-N-BE(2)): 20 µM

Question: O=C1Nc2ccc3ncsc3c2/C1=C/Nc1ccc(S(=O)(=O)NCCOCCO)cc1 was tested. Which IC50 [1] did it give?
Answer: Its IC50 is 0.00054 µM.

Question: What about the IC50 [2] of the same molecule?
Answer: Its IC50 is 0.012 µM.

Question: CC1(C)CC(=O)C2=C(C1)NC(=S)NC21C(=O)Nc2ccc(Br)cc21 (stereo unspecified) was tested. Which MIC (Staphylococcus aureus) did it give?
Answer: The MIC was 500 µg.

Question: And the MIC (Escherichia coli)?
Answer: Its MIC is 500 µg.

Question: For C[C@@H]1O[C@@H](OC[C@H]2O[C@@H](Oc3c(-c4ccc(O)c(O)c4)oc4cc(O)cc(O)c4c3=O)[C@H](O)[C@@H](O)[C@@H]2O)[C@H](O)[C@H](O)[C@H]1O [RUTIN], which IC50 [3] is on record?
Answer: Its IC50 is 295 µM.

Question: Which IC50 (T-24) does the source give for CC(=O)O[C@H]1CC[C@@]2(C)C(=CC[C@@H]3[C@@H]2CC[C@]2(C)C4=C(C#N)C(=N)OC5(C(=O)N(Cc6c(F)cccc6F)c6ccccc65)C4C[C@@H]32)C1 (stereo partly specified) here?
Answer: Its IC50 is 4.43 µM.

Question: And the IC50 (MGC-803)?
Answer: The IC50 was 8.45 µM.

Question: How did the inhibition (Homo sapiens) turn out when O=C1Nc2ccccc2C1=O was run?
Answer: The inhibition was 35%.

Question: How did the MIC [4] turn out when Cc1ccc(CN2C(=O)/C(=N/NC(=O)c3ccccc3)c3cc(C)ccc32)cc1 was run?
Answer: The MIC was 25 mg/L (≈ 65.2 µM).

Question: What does the source list for Cc1ccc(S(=O)(=O)N2CCN(c3ccc(/C=C4/C(=O)Nc5ccccc54)cc3)CC2)cc1?
Answer: MIC (Streptococcus pyogenes): 25 mg/L (≈ 54.4 µM); MIC (Staphylococcus aureus; Staphylococcus aureus, read-out: MIC): 25 mg/L (≈ 54.4 µM); MIC (Pseudomonas aeruginosa): 25 mg/L (≈ 54.4 µM); MIC (Escherichia coli; Escherichia coli, read-out: MIC): 25 mg/L (≈ 54.4 µM)

Question: With CN1C(=O)O[C@]2(C[C@H]1c1ccccc1)C(=O)Nc1ccccc12 as the molecule, how does the GI50 (MCF7) read?
Answer: The GI50 was 2.6 µM.

Question: O=C1Cc2cc(O)ccc2N1 was tested. Which inhibition (Homo sapiens) did it give?
Answer: The inhibition was 35%.

Question: For Cc1ccc(O)c(/C=C2\C(=O)Nc3ccccc32)c1, which IC50 [3] is on record?
Answer: Its IC50 is 195 µM.

Question: With CC(=O)O[C@H]1CC[C@@]2(C)C(=CC[C@@H]3[C@@H]2CC[C@]2(C)C4=C(C#N)C(=N)OC5(C(=O)N(Cc6ccc(C)cc6)c6ccccc65)C4C[C@@H]32)C1 (stereo partly specified) as the molecule, how does the IC50 (T-24) read?
Answer: The IC50 was 4.43 µM.

Question: What about the IC50 (MGC-803) of the same molecule?
Answer: Its IC50 is 8.45 µM.

Question: Which IC50 (RKO) does the source give for COc1cc[nH]c1/C=C1\C(=O)Nc2ccc([N+](=O)[O-])c(N3CC[C@@H](N)C3)c21 here?
Answer: Its IC50 is under 10 µM.

Question: And the IC50 (MDA-MB-435)?
Answer: The IC50 was under 10 µM.

Question: Cc1cc(CCC(=O)O)c(/C=C2\C(=O)Nc3ccccc32)[nH]1 was tested. Which IC50 [5] did it give?
Answer: Its IC50 is 0.096 µM.

Question: With O=C1Nc2ccccc2/C1=C/Nc1ccc(-n2nccn2)cc1 as the molecule, how does the IC50 [6] read?
Answer: The IC50 was 0.008 µM.

Question: Which IC50 (A549) does the source give for O=C1Nc2ncccc2C12CCN(Cc1ccccc1OC(F)(F)F)CC2 here?
Answer: Its IC50 is 0.05 µM.

Question: Which IC50 [3] does the source give for O=C1Nc2ccccc2/C1=C/c1cccc(Cl)c1 here?
Answer: Its IC50 is 150 µM.
